{"source": "paper PMC8618187", "about": "(Nanomaterials, 2021)", "key": {"HCT-116 cells [1]": {"test_system": "HCT-116 cells", "assay": "Cellular uptake of curcumin by fluorescence microscopy", "format": "cell-based, human", "conditions": "curcumin loaded into PT-R-Ms micelles, HCT-116, 0, 6, 12 h", "protocol": "To analyze the internalization of curcumin (a P-gP inhibitor) into tumor cells, HCT-116 tumor cells were used. Curcumin as a fluorescent probe was encapsulated within the core of PT-R-Ms micelles following a similar procedure to that mentioned earlier for PTX loaded micelles. The HCT-116 cells were seeded into 6 well plates at a density of 1 × 10^6 cells/well. After 24 h the cells became confluent and were incubated with curcumin-loaded PT-R-Ms for different time periods (0, 6, 12 h). Upon incubation, the medium was removed and the cells were washed with cold PBS. Subsequently, the uptake of curcumin was monitored by fluorescence microscopy (Evos® FL Cell Imaging System, Thermo Fisher Scientific, Waltham, MA, USA). Ex vivo assays based on the tumor tissue slice model were used to analyze the curcumin uptake by inhibition of P-gP efflux pump overexpressed on tumor cells, as reported earlier. Different slides of tumor tissue were prepared and stained with curcumin-loaded PT-R-Ms. Similarly, HCT-116 tumor tissue cells were incubated for different time intervals to monitor the uptake of curcumin."}, "[2]": {"assay": "In vitro PTX release with kinetic modelling (with/without GSH)", "format": "physicochemical", "conditions": "without GSH", "protocol": "Glutathione (GSH)-triggered release was investigated in vitro from Ms, R-Ms, PR-Ms, and PT-R-Ms formulations (without GSH) and from PT-R-Ms in the presence of 20 mM GSH.\nRedox responsive multifunctional micelles remained indolent in the physiological environment and became activated when they reached a reductive environment, which is another approach for targeted site-specific delivery. As a proof-of-concept, glutathione (GSH)-triggered release (to mimic the redox tumor microenvironment) was investigated in vitro from Ms, R-Ms, PR-Ms, and PT-R-Ms formulations (without GSH) and from PT-R-Ms in the presence of 20 mM GSH. The controlled burst release was confirmed by applying kinetic models of drug release (zero-order, Higuchi, Korsmeyer–Peppas, and Hixon Crowell) to the different formulations, and the results are gathered in Table 2. The Korsmeyer–Peppas model was proven to be suitable to explain the release kinetics from the PT-R-Ms, which is a prerequisite for polymeric systems."}, "human macrophages": {"test_system": "human macrophages", "assay": "Biocompatibility against human macrophages (MTT)", "format": "cell-based", "conditions": "high concentrations", "protocol": "Biocompatibility studies of pure PTX, Ms, RMs, PR-Ms, and PT-R-Ms were performed against human macrophages. Ficoll-percoll gradient technique was used to isolate human macrophages. Ficoll solution was prepared by dissolving 5.6 g of ficoll in 9.5 mL deionized water and 5 mL gastrografin to achieve a density of 1.070 g/mL. The fresh human blood (10 cm^3) was diluted three times with Hanks buffer salt solution (HBSS), layered onto a percoll gradient and then centrifuged at 400× g for 5 min to isolate the macrophage layer. The separated cells were suspended in RPMI medium (10% FBS, 100 U/mL penicillin, 0.1 mg/mL streptomycin, and 25 mM HEPES) and incubated at 5% CO2. […] Normal cells were taken as negative controls, while cells treated with 1% Triton X were used as positive controls to investigate the viability."}, "HCT-116 cells [3]": {"test_system": "HCT-116 cells", "assay": "Cell apoptosis by flow cytometry (Annexin V FITC/PI)", "format": "cell-based, human", "parameters": "dose or concentration left out as unconfirmed", "conditions": "HCT-116, 48 h", "from_the_text": "After treatment, the cells were harvested and washed twice with cold PBS."}, "[4]": {"assay": "Oral pharmacokinetics of PTX", "format": "in vivo, rats", "from_the_text": "Healthy female rats weighing 120–150 g were selected and fasted overnight with free access to water and were randomly distributed into four groups and each group had four rats (n = 4)."}, "[5]": {"assay": "In vivo biodistribution (fluorescence of excised organs and tumors)", "parameters": "species or system rats", "conditions": "oral", "protocol": "The fluorotagged PT-R-Ms were given orally to rats by oral gavage. After 48 h, rats were sacrificed and their major organs were excised to investigate the formulation distribution within them. The fluorescence intensity of the excised organs (heart, liver, spleen, and kidney) was examined using the iBox Explorer2 (iBox® Explorer2 Imaging Microscope; UVP Ltd. The system was set on a 535/45 nm excitation filter and a 605/50 nm emission filter with the automated BioLite™ MultiSpectral Light Source. Images were taken at 0.17× magnification, and the intensity was kept at 6 using the 3.2 MP OptiChemi 610 camera (Vision Works® LS Acquisition, AnlyticJena, Jena, Germany). An analysis software was used to study the images."}, "rats [6]": {"test_system": "rats", "conditions": "rat, in vivo, po, 20 mg/kg", "procedure": "(§1) Healthy, female rats weighing 150 g and aged 10–14 weeks were taken from the animal house. Rats were divided into 4 groups (n = 4) and kept under a standard condition of food and water in the controlled environment. […] The dose (20 mg/kg) was administered orally through oral gavage. […] After 14 days, the rats were sacrificed for blood and serum biochemistry and tissue histology studies [29].\n(§2) The blood from each rat was drawn through cardiac puncture into BD vacutainer blood collection tubes. […] The clear supernatant was carefully removed and stored at −20 °C. Liver function tests (LFTs) including alkaline phosphatase (ALP), serum glutamic-pyruvic transaminase (SGPT), serum glutamic-oxaloacetic transaminase (SGOT) and bilirubin, renal functions tests (RFTs) including urea and creatinine, serum electrolytes (Na, Mg, Ca, and P), glucose and total protein were analyzed using the serum.\n(§3) Changes in the organs weight were measured to evaluate the toxicity of tested formulations. The vital organs (heart, kidneys, liver, and spleen) were removed from the rats after being sacrificed, washed with normal saline, and then weighed individually. The weights of organs from treated groups were compared with a control group and body mass index was calculated using the following formula [30]: organ−body weight index (%)=organ weight/body weight×100%\n(§4) Vital organs (liver, kidney, heart, and spleen) were examined for toxicity and to notice any pathological changes [31]. The organs were stored in 10% formalin solution. A paraffin section (0.5 µm) was cut into the same size as the organ via a rotary microtome and was properly fixed. Tissue sections were then fixed onto glass slides followed by staining with hematoxylin and eosin periodic acid Schiff (PAS). The sections were examined under a microscope for any toxic effect produced by the redox and non-redox micelles."}, "in vitro": {"assay": "in vitro", "conditions": "rat, pH 6.5", "procedure": "Briefly, the study was conducted on the intestine of healthy rats weighing between 250–300 g. The rats were sacrificed and the abdomen was opened with a middle incision. The intestine was immediately removed, thoroughly washed with Krebs ringer solution (pH 6.5), and cut into pieces of 4–5 cm. The intestine was everted by carefully passing a narrow glass rod from one end of the intestine and then gently rolling it on a glass rod. All the pieces were stored in an oxygenated Krebs ringer solution at 4 °C until further use. […] Each segment was tied at one end with a silk suture, and 1 mL of sample (1 mg/mL) was carefully filled in the sac using a hypodermic syringe and the other end was tied with a silk suture. […] All filled sacs were immersed in tubes filled with 10 mL of oxygenated Krebs solution and incubated at 37 °C under gentle mechanical shaking. The samples were collected at predefined times from the surrounding medium and replaced with the same amount of fresh solution. […] The apparent permeability was calculated using the following equation:Apparent permeability (µg/cm^2) = (concentration × volume)/mucosal surface area\nThe mucosal surface area was calculated assuming that the intestine is a cylinder by using the formula:Mucosal surface area (cm^2) = circumference (π × diameter) × length"}, "rats [7]": {"test_system": "rats", "assay": "Acute oral toxicity (OECD 425), serum biochemistry, histopathology", "conditions": "single oral dose of 20 mg of PTX/kg, after 14 days", "procedure": "as §1, §2, §3, §4"}, "[8]": {"conditions": "female, rat, plasma, oral gavage, 20 mg/kg"}}, "note": "Where two headings read alike, the source gives them in different places."}
{"smiles": "COc1cc(/C=C/C(=O)CC(=O)/C=C/c2ccc(O)c(OC)c2)ccc1O", "note": "[curcumin]", "values": [{"measurement": "time of maximum curcumin uptake", "setting": "HCT-116 cells [1]", "result": 12, "unit": "h"}]}
{"smiles": "CC(=O)O[C@H]1C(=O)[C@@]2(C)[C@H]([C@H](OC(=O)c3ccccc3)[C@]3(O)C[C@H](OC(=O)[C@H](O)[C@@H](NC(=O)c4ccccc4)c4ccccc4)C(C)=C1C3(C)C)[C@]1(OC(C)=O)CO[C@@H]1C[C@@H]2O", "note": "[PTX, paclitaxel]", "values": [{"measurement": "Higuchi Model K0", "setting": "[2]", "result": 40.117}, {"measurement": "Hixon Crowell Model K0", "setting": "[2]", "result": 0.190}, {"measurement": "Korsmeyer–Peppas Model N", "setting": "[2]", "result": 0.701}, {"measurement": "Zero Order K0", "setting": "[2]", "result": 21.01}, {"measurement": "toxicity against human macrophages", "setting": "human macrophages", "result": "cytotoxic"}, {"measurement": "percentage of apoptotic cells", "setting": "HCT-116 cells [3]", "result": "28.57 ± 0.06", "unit": "%"}, {"measurement": "time above the minimum effective concentration / within the therapeutic window", "setting": "[4]; MEC 35 ng/mL, oral", "result": 2, "unit": "h"}, {"measurement": "bioavailability", "setting": "[4]; female, rat, plasma, po, 20 mg/kg", "result": 7.5, "unit": "%"}, {"measurement": "Cmax", "setting": "[4]; [8]", "result": "70.69 ± 0.14", "unit": "ng/mL"}, {"measurement": "half-life", "setting": "[4]; [8]", "result": "32.9 ± 2.2", "unit": "h"}, {"measurement": "AUC(0-t)", "setting": "[4]; female, rat, plasma, oral gavage, 20 mg/kg, read-out: AUC 0-96", "result": "4271 ± 8.4", "unit": "ng·h/mL"}, {"measurement": "MRT last", "setting": "[4]; female, rat, plasma, oral gavage, 20 mg/kg, read-out: MRT 0-96", "result": "54.9 ± 2.7", "unit": "h"}, {"measurement": "Tmax", "setting": "[4]; female, rat, plasma, oral gavage, 20 mg/kg, read-out: Tmax", "result": "4 ± 0.2", "unit": "h"}, {"measurement": "Tmax", "setting": "[4]; oral gavage, 20 mg/kg", "result": 2, "unit": "h"}, {"measurement": "biodistribution: liver", "setting": "[5]", "result": "significantly higher uptake in the liver"}, {"measurement": "histopathological changes in the liver tissue", "setting": "rats [6]", "result": "cytoplasmic degeneration, necrosis, hemorrhage, and infiltration of inflammatory cells"}, {"measurement": "histopathology of heart tissue", "setting": "rats [6]", "result": "lesions, myocarditis, and infiltration of inflammatory cells"}, {"measurement": "histopathology of kidney tissue", "setting": "rats [6]", "result": "distorted glomeruli, dilated tubules, edema exudate, mild necrosis, and infiltration of inflammatory cells"}, {"measurement": "histopathology of spleen tissue", "setting": "rats [6]", "result": "distorted lymphoid architecture"}, {"measurement": "Papp A→B at 1 mg/mL", "setting": "in vitro", "result": "0.43 ± 0.2", "unit": "×10⁻⁶ cm/s"}, {"measurement": "Papp B→A at 1 mg/mL", "setting": "in vitro", "result": "2.35 ± 0.2", "unit": "×10⁻⁶ cm/s"}, {"measurement": "Mortality, tissue damage, or bodyweight change", "setting": "rats [7]", "result": "not observed"}]}
